In the NIST ThermoML archive (doi:10.1021/je049743g):
“And” between values parts separate entries of the source, which are not always exact repeats. Equal values may be shown once.

Assay: wn = mass fraction of the nth substance listed
Conditions: Capillary rise

FC(C(F)(F)F)C(F)(F)F [1,1,1,2,3,3,3-heptafluoropropane] + FCF
Conditions	surface tension liquid-gas
252.66 K, w2 = 0.3988	12.74 mN/m and 12.77 mN/m
252.82 K, w2 = 0.3003	12.41 mN/m
254.68 K, w2 = 0.3983	12.35 mN/m and 12.37 mN/m
254.83 K, w2 = 0.544	12.71 mN/m
255.1 K, w2 = 0.2998	12.14 mN/m and 12.13 mN/m
256.92 K, w2 = 0.354	11.85 mN/m
257.09 K, w2 = 0.5434	12.37 mN/m and 12.38 mN/m
257.1 K, w2 = 0.2993	11.77 mN/m and 11.79 mN/m
257.1 K, w2 = 0.3977	12.02 mN/m and 12.03 mN/m
258.83 K, w2 = 0.5429	11.97 mN/m
258.84 K, w2 = 0.7282	12.63 mN/m and 12.65 mN/m
258.88 K, w2 = 0.3972	11.74 mN/m
259 K, w2 = 0.2988	11.52 mN/m and 11.51 mN/m
260.89 K, w2 = 0.3528	11.26 mN/m and 11.25 mN/m
260.99 K, w2 = 0.5423	11.65 mN/m
261.01 K, w2 = 0.2982	11.3 mN/m
261.05 K, w2 = 0.3966	11.49 mN/m and 11.48 mN/m
262.75 K, w2 = 0.2977	11 mN/m and 10.97 mN/m
262.79 K, w2 = 0.3521	11.06 mN/m
262.8 K, w2 = 0.7274	12.12 mN/m and 12.08 mN/m
262.85 K, w2 = 0.3961	11.14 mN/m
262.96 K, w2 = 0.5417	11.34 mN/m
262.98 K, w2 = 0.3961	11.14 mN/m and 11.18 mN/m
264.66 K, w2 = 0.727	11.63 mN/m and 11.62 mN/m
264.68 K, w2 = 0.5412	11.11 mN/m and 11.09 mN/m
264.87 K, w2 = 0.3955	10.9 mN/m and 10.92 mN/m
264.88 K, w2 = 0.3514	10.71 mN/m and 10.75 mN/m
264.96 K, w2 = 0.297	10.65 mN/m
266.51 K, w2 = 0.2966	10.42 mN/m and 10.44 mN/m
266.75 K, w2 = 0.5405	10.75 mN/m and 10.74 mN/m
266.88 K, w2 = 0.3507	10.44 mN/m and 10.47 mN/m
267.04 K, w2 = 0.3948	10.5 mN/m and 10.52 mN/m
268.37 K, w2 = 0.296	10.2 mN/m and 10.23 mN/m
268.37 K, w2 = 0.54	10.53 mN/m and 10.52 mN/m
268.63 K, w2 = 0.7261	11.05 mN/m and 11 mN/m
268.72 K, w2 = 0.3943	10.33 mN/m
268.79 K, w2 = 0.35	10.2 mN/m and 10.23 mN/m
270.7 K, w2 = 0.3936	10.06 mN/m and 10.03 mN/m
270.78 K, w2 = 0.3493	9.92 mN/m
270.78 K, w2 = 0.5392	10.1 mN/m
270.81 K, w2 = 0.2952	9.83 mN/m and 9.86 mN/m
272.17 K, w2 = 0.7252	10.38 mN/m
272.9 K, w2 = 0.2945	9.56 mN/m and 9.6 mN/m
272.91 K, w2 = 0.7249	10.28 mN/m
273.15 K, w2 = 0.3928	9.64 mN/m and 9.66 mN/m
273.15 K, w2 = 0.5383	9.73 mN/m
273.6 K, w2 = 0.3482	9.51 mN/m
275.16 K, w2 = 0.2937	9.29 mN/m and 9.31 mN/m
275.3 K, w2 = 0.392	9.26 mN/m and 9.29 mN/m
275.48 K, w2 = 0.5375	9.44 mN/m
275.5 K, w2 = 0.3474	9.19 mN/m and 9.23 mN/m
275.5 K, w2 = 0.7242	9.87 mN/m and 9.89 mN/m
276.85 K, w2 = 0.2931	9.01 mN/m and 9.05 mN/m
277.27 K, w2 = 0.3913	9.02 mN/m and 9.06 mN/m
277.3 K, w2 = 0.7237	9.66 mN/m and 9.65 mN/m
277.39 K, w2 = 0.3466	8.95 mN/m and 8.98 mN/m
277.43 K, w2 = 0.5367	9.29 mN/m
279.39 K, w2 = 0.7231	9.32 mN/m and 9.34 mN/m
279.42 K, w2 = 0.2921	8.71 mN/m
279.43 K, w2 = 0.5359	8.92 mN/m
279.46 K, w2 = 0.3457	8.67 mN/m
279.6 K, w2 = 0.3904	8.74 mN/m and 8.76 mN/m
281.21 K, w2 = 0.3898	8.45 mN/m and 8.46 mN/m
281.3 K, w2 = 0.5351	8.65 mN/m and 8.64 mN/m
281.45 K, w2 = 0.3448	8.4 mN/m and 8.41 mN/m
281.51 K, w2 = 0.2913	8.39 mN/m
281.54 K, w2 = 0.7224	8.9 mN/m and 8.93 mN/m
283.11 K, w2 = 0.2907	8.2 mN/m
283.17 K, w2 = 0.389	8.23 mN/m
283.29 K, w2 = 0.7219	8.59 mN/m and 8.61 mN/m
283.3 K, w2 = 0.5342	8.39 mN/m and 8.4 mN/m
283.49 K, w2 = 0.3439	8.13 mN/m
284.67 K, w2 = 0.5336	8.04 mN/m and 8.07 mN/m
285.18 K, w2 = 0.7212	8.37 mN/m
285.19 K, w2 = 0.3882	7.93 mN/m and 7.99 mN/m
285.24 K, w2 = 0.2898	7.93 mN/m and 7.9 mN/m
285.46 K, w2 = 0.343	7.94 mN/m and 7.95 mN/m
286.62 K, w2 = 0.3876	7.79 mN/m
286.86 K, w2 = 0.2891	7.75 mN/m and 7.71 mN/m
287.47 K, w2 = 0.342	7.57 mN/m
287.63 K, w2 = 0.5322	7.69 mN/m and 7.73 mN/m
289.31 K, w2 = 0.5314	7.44 mN/m and 7.45 mN/m
289.33 K, w2 = 0.7197	7.78 mN/m
289.37 K, w2 = 0.288	7.41 mN/m
289.37 K, w2 = 0.3411	7.34 mN/m and 7.38 mN/m
289.42 K, w2 = 0.3863	7.45 mN/m
289.68 K, w2 = 0.2879	7.29 mN/m
289.89 K, w2 = 0.7195	7.55 mN/m and 7.53 mN/m
290.16 K, w2 = 0.386	7.2 mN/m
291.25 K, w2 = 0.2872	7.12 mN/m
291.47 K, w2 = 0.34	7.14 mN/m
291.47 K, w2 = 0.5304	7.13 mN/m and 7.18 mN/m
291.5 K, w2 = 0.3854	7.05 mN/m and 7.03 mN/m
291.53 K, w2 = 0.2871	7.07 mN/m and 7.05 mN/m
291.66 K, w2 = 0.3853	7.07 mN/m and 7.11 mN/m
291.67 K, w2 = 0.5303	7.18 mN/m and 7.16 mN/m
291.93 K, w2 = 0.7187	7.33 mN/m and 7.35 mN/m
293.1 K, w2 = 0.2864	6.87 mN/m
293.2 K, w2 = 0.3391	6.83 mN/m and 6.87 mN/m
293.46 K, w2 = 0.2862	6.81 mN/m and 6.79 mN/m
293.53 K, w2 = 0.5293	6.9 mN/m
293.53 K, w2 = 0.7181	7.06 mN/m and 7.09 mN/m
293.8 K, w2 = 0.3843	6.67 mN/m and 6.69 mN/m
